Reference: US10865216B2, “Tricyclic Gyrase inhibitors” (MERCK SHARP & DOHME CORP., priority 2012, dated 2020)
≈ marks a conversion by molar mass, not a printed value. Where two headings read alike, the source gives them in different places.

Legend:
[1] = from CNc1cc(F)cc2c1[nH]c1nc(Oc3cnc(SCC(=O)O)nc3)nc(N[C@H](CN)COCCCN)c12; amide bond; BOP, then EDC (Et3N); DCM/NMP (1:1); 38.5 mM; 40.0 °C; 3.0 h
[2] = the molecule shown is the open-chain precursor, amide bond, BOP/Et3N then EDC, DCM/NMP 1:1, 40.0 °C
[3] = tested on: K. pneumoniae ATCC 700603; experiment: MIC, K. pneumoniae ATCC 700603; type: cell-based; settings: for MIC: Klebsiella pneumoniae, ATCC700603
[4] = tested on: B. thailandensis ATCC E264; experiment: microbe, parasite or virus in culture; type: cell-based
[5] = tested on: E. coli ATCC 25922; experiment: MIC, E. coli ATCC 25922; type: cell-based; settings: for MIC Ec: E. coli; for Ec MIC: Table 10; for MIC: Escherichia coli; for EC8 MIC: Table 14, R2 is a 5 membered heterocycle, EC8 not defined
[6] = tested on: S. aureus ATCC 13709; experiment: MIC, S. aureus ATCC 13709; type: cell-based; settings: for MIC Sa: S. aureus; for Sa MIC: Table 10; for MIC: Staphylococcus aureus; for SA MIC: Table 14, R2 is a 5 membered heterocycle
[7] = tested on: F. tularensis holarctica LVS; experiment: microbe, parasite or virus in culture; type: cell-based; settings: for Ft MIC: Table 10, Ft = F. tularensis, strain not stated
[8] = tested on: P. aeruginosa ATCC 15692; experiment: MIC, P. aeruginosa ATCC 15692; type: cell-based; settings: for MIC: Pseudomonas aeruginosa, ATCC15692
[9] = tested on: S. pneumoniae ATCC 51916; experiment: MIC, S. pneumoniae ATCC 51916; type: cell-based; settings: for MIC: Streptococcus pneumoniae, ATCC51916
[10] = tested on: Y. pestis CO92 pgm-; type: cell-based; settings: Table 10
[11] = tested on: A. baumannii ATCC 19606; experiment: MIC, A. baumannii ATCC 19606; type: cell-based; settings: for MIC: Acinetobacter baumannii, ATCC19606
[12] = target: T1, hERG (Homo sapiens, UniProt Q12809); experiment: Cerep automated patch-clamp hERG assay, Chinese Hamster Ovary K1 cells; type: cell-based; settings: for IC50: Table 19, automated patch-clamp, CHO K1 cells, tail current
T1 construct: host or cells: Chinese Hamster Ovary K1 cells
T1 sequence (Q12809 whole entry): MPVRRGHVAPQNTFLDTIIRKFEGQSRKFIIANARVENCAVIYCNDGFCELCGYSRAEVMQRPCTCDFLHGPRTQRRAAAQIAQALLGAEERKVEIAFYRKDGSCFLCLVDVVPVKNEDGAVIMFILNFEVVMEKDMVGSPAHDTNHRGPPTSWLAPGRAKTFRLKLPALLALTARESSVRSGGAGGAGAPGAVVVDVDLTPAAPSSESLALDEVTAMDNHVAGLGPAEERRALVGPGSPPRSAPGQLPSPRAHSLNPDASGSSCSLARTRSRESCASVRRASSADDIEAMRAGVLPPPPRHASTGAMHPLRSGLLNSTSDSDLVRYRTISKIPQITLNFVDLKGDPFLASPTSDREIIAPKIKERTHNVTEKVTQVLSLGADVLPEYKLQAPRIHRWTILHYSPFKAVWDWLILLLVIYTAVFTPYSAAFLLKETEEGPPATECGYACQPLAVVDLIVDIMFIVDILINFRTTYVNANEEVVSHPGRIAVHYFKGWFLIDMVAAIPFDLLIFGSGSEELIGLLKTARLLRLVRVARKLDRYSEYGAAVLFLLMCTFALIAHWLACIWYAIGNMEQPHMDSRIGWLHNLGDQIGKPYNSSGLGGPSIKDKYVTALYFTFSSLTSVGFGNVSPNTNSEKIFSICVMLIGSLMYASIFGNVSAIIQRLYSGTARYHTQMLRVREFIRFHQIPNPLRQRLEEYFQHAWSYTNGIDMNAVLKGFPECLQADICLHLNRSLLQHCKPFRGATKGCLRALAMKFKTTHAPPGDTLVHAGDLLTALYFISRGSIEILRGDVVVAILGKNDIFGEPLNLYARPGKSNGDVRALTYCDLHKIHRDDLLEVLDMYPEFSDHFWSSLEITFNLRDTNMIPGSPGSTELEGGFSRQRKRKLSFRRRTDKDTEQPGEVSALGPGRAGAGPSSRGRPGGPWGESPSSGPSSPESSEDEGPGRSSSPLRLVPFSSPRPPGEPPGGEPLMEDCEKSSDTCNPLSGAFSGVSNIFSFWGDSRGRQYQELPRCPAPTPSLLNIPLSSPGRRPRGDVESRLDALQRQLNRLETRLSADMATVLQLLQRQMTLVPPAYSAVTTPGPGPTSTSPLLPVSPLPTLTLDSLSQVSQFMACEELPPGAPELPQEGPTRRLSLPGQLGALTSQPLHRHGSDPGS
Method: A Cerep automated patch-clamp assay using Chinese Hamster Ovary K1 cells was used to measure hERG IC50 values. The degree of inhibition (%) was obtained by measuring the tail current amplitude, which is induced by a one second test pulse to −40 mV after a two second pulse to +20 mV, before and after drug incubation (the difference in current was normalized to control and multiplied by 100 to obtain the percent inhibition).
Concentration (log) response curves were fitted to a logistic equation (three parameters assuming complete block of the current at very high test compound concentrations) to generate estimates of the 50% inhibitory concentration (IC50). The concentration-response relationship of each compound was constructed from the percentage reductions of current amplitude by sequential concentrations. The hERG IC50 values are provided in Table 19 below for the compounds tested.

[13] = tested on: Bp; experiment: organism not typed; type: cell-based; settings: read-out: Bp MIC
[14] = tested on: S. aureus ATCC 13709 + mouse serum; experiment: MIC, SA + serum (S. aureus ATCC 13709, MHCA + mouse serum); type: cell-based; settings: Table 14; R2 is a 5 membered heterocycle
[15] = Alamar Blue read after overnight incubation at 35° C.
[16] = Ec = E. coli, strain not stated
[17] = Table 10, Ab = A. baumannii, strain not stated
[18] = ATCC25922, E. coli, Alamar Blue read after overnight incubation at 35° C., read-out: MIC Ec
[19] = ATCC13709, S. aureus, Alamar Blue read after overnight incubation at 35° C., read-out: MIC Sa

Compound: CNc1cc(F)cc2c1[nH]c1nc3nc(c12)N[C@H](CN)COCCCNC(=O)CSc1ncc(cn1)O3
- ring closure, yield of all isomers [1]: 57%

Compound: 2-((5-((4-(6-aminohexyl)amino)-8-((tert-butoxycarbonyl)(methyl)amino)-6-fluoro-9H-pyrimido[4,5-b]indol-2-yl)oxy)pyrimidin-2-yl)thio)acetic acid
- ring closure, yield after HPLC ([2]; 19-membered ring, 30.0 mM): 72%

Compound: 5-((4-(6-aminohexyl)amino)-8-((tert-butoxycarbonyl)(methyl)amino)-6-fluoro-9H-pyrimido[4,5-b]indol-2-yl)oxy)nicotinic acid
- ring closure, yield after HPLC ([2]; 16-membered ring, 18.5 mM): 74%

Compound: CNc1cc(F)cc2c1[nH]c1nc(Oc3cnc(C)nc3)nc(N3C[C@@H]4CCN[C@@H]4C3)c12 [Compound 4.103]
- Kpn MIC ([3]; Table 10, Kpn = K. pneumoniae): 2 µg/mL
- Bt MIC [4]: ≤0.5 µg/mL
- MIC Ec [5, 15]: ≤0.5 µg/mL
- Ec MIC [5, 16]: ≤0.5 µg/mL
- MIC Sa [6, 15]: ≤0.5 µg/mL
- Sa MIC ([6]; Sa = S. aureus): ≤0.5 µg/mL
- Ft MIC [7]: 1 µg/mL
- Pa MIC ([8]; Table 10, Pa = P. aeruginosa): 2 µg/mL
- Spn MIC ([9]; Table 10, Spn = S. pneumoniae): ≤0.5 µg/mL
- Yp MIC [10]: ≤0.5 µg/mL
- Ab MIC [11, 17]: ≤0.5 µg/mL

Compound: CNc1cc(F)cc2c1[nH]c1nc(Oc3cnc(C)nc3)nc(N3CC4(CC[C@H]4N)C3)c12 [Compound 4.105]
- Kpn MIC ([3]; Table 10, Kpn = K. pneumoniae): 2 µg/mL
- Bt MIC [4]: ≤0.5 µg/mL
- MIC Ec [5, 15]: ≤0.5 µg/mL
- Ec MIC [5, 16]: ≤0.5 µg/mL
- MIC Sa [6, 15]: ≤0.5 µg/mL
- Sa MIC ([6]; Sa = S. aureus): ≤0.5 µg/mL
- Ft MIC [7]: 1 µg/mL
- Pa MIC ([8]; Table 10, Pa = P. aeruginosa): 1 µg/mL
- Spn MIC ([9]; Table 10, Spn = S. pneumoniae): ≤0.5 µg/mL
- Yp MIC [10]: ≤0.5 µg/mL
- Ab MIC [11, 17]: ≤0.5 µg/mL

Compound: CNc1cc(F)cc2c1[nH]c1nc(Oc3cnc(C)nc3)nc(N3CCC4(CCC4N)C3)c12 (centres unmarked) [Compound 4.117]
- Kpn MIC ([3]; Table 10, Kpn = K. pneumoniae): 2 µg/mL
- Bt MIC [4]: ≤0.5 µg/mL
- MIC Ec [5, 15]: ≤0.5 µg/mL
- Ec MIC [5, 16]: ≤0.5 µg/mL
- MIC Sa [6, 15]: ≤0.5 µg/mL
- Sa MIC ([6]; Sa = S. aureus): ≤0.5 µg/mL
- Ft MIC [7]: 1 µg/mL
- Pa MIC ([8]; Table 10, Pa = P. aeruginosa): 1 µg/mL
- Spn MIC ([9]; Table 10, Spn = S. pneumoniae): ≤0.5 µg/mL
- Yp MIC [10]: ≤0.5 µg/mL
- Ab MIC [11, 17]: ≤0.5 µg/mL

Compound: CNc1cc(F)cc2c1[nH]c1nc(Oc3cnc([C@@H](C)O)nc3)nc(N3C[C@H]4C[C@@H]3C[C@H]4N)c12 [Compound 4.408]
- MIC [5, 18]: ≤ 0.5 µg/mL
- MIC [6, 19]: ≤ 0.5 µg/mL
- IC50 [12]: 6.4 µM

Compound: CNc1cc(F)cc2c1[nH]c1nc(Oc3cnc(C(C)O)nc3)nc(N3CC4C[C@@H](N)C4C3)c12 (some centres unmarked) [Compound 4.409]
- MIC ([3]; Table 10, Kpn = K. pneumoniae): 4 µg/mL (≈ 8.61 µM)
- MIC [5, 18]: ≤ 0.5 µg/mL
- MIC ([5]; ATCC25922, Table 10, Ec = E. coli, strain not stated, read-out: Ec MIC): ≤ 0.5 µg/mL
- MIC [6, 19]: ≤ 0.5 µg/mL
- MIC ([6]; ATCC13709, Table 10, Sa = S. aureus, read-out: Sa MIC): ≤ 0.5 µg/mL
- IC50 [12]: 7.5 µM
- MIC ([8]; Table 10, Pa = P. aeruginosa): 1 µg/mL (≈ 2.15 µM)
- MIC ([9]; Table 10, Spn = S. pneumoniae): ≤ 0.5 µg/mL
- MIC [11, 17]: 1 µg/mL (≈ 2.15 µM)

Compound: CNc1cc(F)c(F)c2c1[nH]c1nc(Oc3cnc([C@@H](C)O)nc3)nc(N3C[C@H]4C[C@@H]3C[C@H]4N)c12 [Compound 9.1]
- MIC ([3]; Table 20, read-out: Kpn MIC): 4 µg/mL (≈ 8.29 µM)
- MIC ([4]; Burkholderia thailandensis, ATCCE264, read-out: Bt MIC): 0.5 µg/mL (≈ 1.04 µM)
- MIC ([5]; ATCC25922, Table 20, read-out: Ec MIC): ≤ 0.5 µg/mL
- MIC ([6]; ATCC13709, Table 20, read-out: Sa MIC): ≤ 0.5 µg/mL
- IC50 [12]: 80 to 100 µM
- selectivity in the hERG assay ([12]; compared with previous compounds in the series): significantly more selective
- MIC ([7]; Francisella tularensis, read-out: Ft MIC): 0.5 µg/mL (≈ 1.04 µM)
- MIC ([8]; Table 20, read-out: Pa MIC): 2 µg/mL (≈ 4.15 µM)
- MIC [13]: 0.5 µg/mL (≈ 1.04 µM)
- MIC ([9]; Table 20, read-out: Spn MIC): ≤ 0.5 µg/mL
- MIC ([11]; Table 20, read-out: Ab MIC): 1 µg/mL (≈ 2.07 µM)

Compound: CNc1cc(F)cc2c1[nH]c1nc(Sc3nncs3)nc(N3C[C@H]4C[C@@H]3C[C@H]4N)c12 [drawing 1754]
- EC8 MIC [5]: ≤ 0.5 µg/mL
- SA MIC [6]: <≤ 0.5
- SA+ serum MIC [14]: ≤ 0.5 µg/mL

Compound: CCOC(=O)c1csc(Nc2nc(N3C[C@H]4C[C@@H]3C[C@H]4N)c3c(n2)[nH]c2c(NC)cc(F)cc23)n1 [drawing 1760]
- EC8 MIC [5]: 1 µg/mL
- SA MIC [6]: ≤ 0.5 µg/mL
- SA+ serum MIC [14]: > 16 µg/mL
